# How the values were obtained:
# xanthine oxidase = xanthine oxidase (Bos taurus, UniProt P80457); assay: Fluorescence-quenching binding to xanthine oxidase; settings: for Affinity n (number of binding sites per enzyme molecule): double-logarithm formula; for Affinity n (number of binding sites per enzyme molecule) / Affinity K sv (dynamic quenching constant): 25 °C; for Affinity K sv (dynamic quenching constant): xanthine oxidase 1.0 μmol L^−1 in PBS, λex 280 nm, emission 335 nm; for Quenching of xanthine oxidase fluorescence (in words): no binding constant value
# Sequence of xanthine oxidase (P80457 2-1332): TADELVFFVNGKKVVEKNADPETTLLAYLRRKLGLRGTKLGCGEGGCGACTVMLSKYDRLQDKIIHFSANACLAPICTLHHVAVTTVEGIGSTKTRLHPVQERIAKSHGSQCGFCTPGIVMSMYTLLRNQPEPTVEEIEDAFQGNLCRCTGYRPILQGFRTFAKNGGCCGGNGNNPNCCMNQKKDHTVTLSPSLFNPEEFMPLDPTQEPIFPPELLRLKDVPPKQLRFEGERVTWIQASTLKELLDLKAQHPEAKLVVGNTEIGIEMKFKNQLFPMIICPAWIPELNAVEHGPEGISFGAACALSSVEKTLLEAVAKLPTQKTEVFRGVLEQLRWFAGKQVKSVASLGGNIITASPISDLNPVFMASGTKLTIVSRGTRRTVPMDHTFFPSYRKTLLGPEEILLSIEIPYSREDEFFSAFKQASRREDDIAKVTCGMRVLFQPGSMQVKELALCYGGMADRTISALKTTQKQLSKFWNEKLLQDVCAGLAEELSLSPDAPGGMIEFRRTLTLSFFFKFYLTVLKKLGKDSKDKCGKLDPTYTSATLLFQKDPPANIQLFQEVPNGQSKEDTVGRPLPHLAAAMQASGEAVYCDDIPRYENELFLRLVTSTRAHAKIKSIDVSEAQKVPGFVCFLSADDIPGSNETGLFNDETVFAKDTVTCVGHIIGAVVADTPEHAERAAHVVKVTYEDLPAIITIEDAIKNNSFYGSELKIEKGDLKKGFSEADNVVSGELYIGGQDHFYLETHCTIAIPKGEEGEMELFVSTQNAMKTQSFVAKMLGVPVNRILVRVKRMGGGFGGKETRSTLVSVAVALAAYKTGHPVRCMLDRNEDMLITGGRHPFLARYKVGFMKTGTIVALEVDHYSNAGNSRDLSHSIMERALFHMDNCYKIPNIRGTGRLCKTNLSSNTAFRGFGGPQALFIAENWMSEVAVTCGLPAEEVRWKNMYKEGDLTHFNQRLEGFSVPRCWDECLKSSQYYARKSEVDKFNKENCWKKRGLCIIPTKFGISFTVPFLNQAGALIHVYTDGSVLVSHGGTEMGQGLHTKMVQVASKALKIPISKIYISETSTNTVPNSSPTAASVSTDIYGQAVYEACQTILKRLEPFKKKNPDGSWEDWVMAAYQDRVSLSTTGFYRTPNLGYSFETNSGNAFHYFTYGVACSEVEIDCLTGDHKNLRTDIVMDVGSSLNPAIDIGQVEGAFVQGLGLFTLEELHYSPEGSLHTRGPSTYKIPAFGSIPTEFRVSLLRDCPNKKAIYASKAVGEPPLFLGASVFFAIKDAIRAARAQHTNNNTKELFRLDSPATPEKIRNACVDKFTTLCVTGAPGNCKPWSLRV
# [1] = partition coefficient; ref https://pubchem.ncbi.nlm.nih.gov/compound/; cited from earlier work
Structure (SMILES),"Fold increase of affinity for xanthine oxidase after glycosylation (xanthine oxidase; aglycone named, 3,7-glycosylation of kaempferol, 3-glycosylation of quercetin, 7-glycosylation of naringenin) [times]","Fold higher affinity for xanthine oxidase than the C2=C3 unsaturated counterpart (xanthine oxidase; dihydromyricetin versus myricetin, naringenin versus apigenin) [times]",Affinity n (number of binding sites per enzyme molecule) (xanthine oxidase),Affinity K sv (dynamic quenching constant) (xanthine oxidase),Quenching of xanthine oxidase fluorescence (in words) (xanthine oxidase),X log P3 [1]
O=C1C[C@@H](c2ccc(O)cc2)Oc2cc(O)cc(O)c21 [Naringenin],73.3,4676,1.2510,0.0568 10^6,–,2.4
O=c1cc(-c2ccc(O)cc2)oc2cc(O)cc(O)c12 [Apigenin],–,–,0.4524,0.0285 10^6,–,1.7
O=C(O)[C@H]1O[C@@H](Oc2cc3oc(-c4ccccc4)cc(=O)c3c(O)c2O)[C@H](O)[C@@H](O)[C@@H]1O [Baicalin],–,–,1.8782,0.3668 10^6,–,1.1
"Oc1cc(O)c2c(c1)O[C@H](c1ccc(O)c(O)c1)[C@H](O)C2 [EC (2,3-cis), epicatechin]",–,–,–,–,not able to quench the fluorescence,–
C[C@@H]1O[C@@H](Oc2cc(O)c3c(=O)c(O[C@@H]4O[C@@H](C)[C@H](O)[C@@H](O)[C@H]4O)c(-c4ccc(O)cc4)oc3c2)[C@H](O)[C@H](O)[C@H]1O [Kaempferitrin],–,–,–,–,–,−0.1
O=c1c(O)c(-c2ccc(O)c(O)c2)oc2cc(O)cc(O)c12 [Quercetin],–,–,1.0614,0.0477 10^6,–,1.5
O=C1c2c(O)cc(O)cc2O[C@H](c2cc(O)c(O)c(O)c2)[C@H]1O [Dihydromyricetin],–,–,1.2262,0.0470 10^6,–,1.1
O=c1cc(-c2ccccc2)oc2cc(O)cc(O)c12 [Chrysin],–,–,0.6025,0.0195 10^6,–,2.1
O=c1cc(-c2ccc(O)c(O)c2)oc2cc(O)cc(O)c12 [Luteolin],–,–,1.3087,0.0926 10^6,–,1.4
O=c1c(-c2ccc(O)cc2)coc2cc(O)ccc12 [Daidzein],–,–,1.2554,0.0230 10^6,–,–
COc1ccc(-c2oc3cc(O)cc(O)c3c(=O)c2O)cc1 [Kaempferide],–,–,–,–,–,2.2
COc1c(O)cc2occ(-c3ccc(O)cc3)c(=O)c2c1O [Tectorigenin],–,–,0.6283,0.0644 10^6,–,2.6

# Further lines, with some results ahead:
"Fold increase of affinity for xanthine oxidase after glycosylation (xanthine oxidase; aglycone named, 3,7-glycosylation of kaempferol, 3-glycosylation of quercetin, 7-glycosylation of naringenin) [times]","Fold higher affinity for xanthine oxidase than the C2=C3 unsaturated counterpart (xanthine oxidase; dihydromyricetin versus myricetin, naringenin versus apigenin) [times]",Affinity n (number of binding sites per enzyme molecule) (xanthine oxidase),Affinity K sv (dynamic quenching constant) (xanthine oxidase),Quenching of xanthine oxidase fluorescence (in words) (xanthine oxidase),Structure (SMILES),X log P3 [1]
–,–,1.6838,0.0846 10^6,–,C[C@@H]1O[C@@H](O[C@H]2[C@H](Oc3cc(O)c4c(c3)O[C@H](c3ccc(O)cc3)CC4=O)O[C@H](CO)[C@@H](O)[C@@H]2O)[C@H](O)[C@H](O)[C@H]1O [Naringin],−0.5
–,–,1.3663,0.0729 10^6,–,O=c1c(O)c(-c2ccc(O)c(O)c2)oc2cc(O)ccc12 [Fisetin],2.0
–,–,0.6866,0.0147 10^6,–,COc1ccc(-c2coc3cc(O)ccc3c2=O)cc1 [Formononetin],2.8
–,–,1.0764,0.0294 10^6,–,O=c1c(O)c(-c2cc(O)c(O)c(O)c2)oc2cc(O)cc(O)c12 [Myricetin],1.2
–,–,1.2461,0.0226 10^6,–,"O=C(O[C@@H]1Cc2c(O)cc(O)cc2O[C@@H]1c1cc(O)c(O)c(O)c1)c1cc(O)c(O)c(O)c1 [EGCG (2,3-cis), (−)-epigallocatechin gallate]",–
–,–,1.5312,0.1981 10^6,–,O=c1cc(-c2ccccc2)oc2cc(O)c(O)c(O)c12 [Baicalein],1.7
–,–,0.9038,0.0276 10^6,–,O=c1c(O)c(-c2ccccc2)oc2cc(O)cc(O)c12 [Galangin],2.3
–,–,1.3911,0.0537 10^6,–,O=c1c(-c2ccc(O)cc2)coc2cc(O)cc(O)c12 [Genistein],2.7
–,–,1.3695,0.0552 10^6,–,O=c1cc(-c2ccccc2)oc2ccccc12 [Flavone],3.6
–,–,1.1801,0.0290 10^6,–,O=c1c(-c2ccc(O)cc2)coc2c([C@@H]3O[C@H](CO)[C@@H](O)[C@H](O)[C@H]3O)c(O)ccc12 [Puerarin],0.0
–,–,1.2904,0.0532 10^6,–,C[C@@H]1O[C@@H](OC[C@H]2O[C@@H](Oc3c(-c4ccc(O)c(O)c4)oc4cc(O)cc(O)c4c3=O)[C@H](O)[C@@H](O)[C@@H]2O)[C@H](O)[C@H](O)[C@H]1O [Rutin],−1.3
–,–,1.0535,0.0225 10^6,–,O=c1c(O)c(-c2ccc(O)cc2)oc2cc(O)cc(O)c12 [Kaempferol],1.9
–,–,1.0022,0.1498 10^6,–,COc1ccc(-c2cc(=O)c3c(OC)c(OC)c(OC)c(OC)c3o2)cc1 [Tangeretin],3.0
–,–,–,–,not able to quench the fluorescence,"Oc1cc(O)c2c(c1)O[C@@H](c1cc(O)c(O)c(O)c1)[C@H](O)C2 [GC (2,3-trans), (−)-gallocatechin]",–
–,–,1.2571,0.0989 10^6,–,COc1c(O)cc2oc(-c3ccc(O)cc3)cc(=O)c2c1O [Hispidulin],1.7
–,–,2.8371,0.9637 10^6,–,COc1ccc(-c2cc(=O)c3c(OC)c(OC)c(OC)c(OC)c3o2)cc1OC [Nobiletin],3.0

# From article PMC9062502 (RSC Advances, 2019)
